pIC50: −log10 of the molar value. Structures can show the parent of a compound that is named as a salt.
Target: GABAA receptor complex (benzodiazepine modulatory unit)
Assay: In vitro inhibition of 3H-flunitrazepam (3H-FNM) binding
Parameters: species or system rat
Settings: inhibition of specific binding of 3H-FNM (1 nM), cerebral cortex membranes from male Wistar rats, 40 min at 2° C.
Experimental: In vitro Inhibition of ^3H-flunitrazepam (^3H-FNM) Binding
The GABA recognition site and the benzodiazepine modulatory unit can selectively be labelled with ^3H-flunitrazepam.
Preparations are performed at 0-4° C. unless otherwise indicated. Cerebral cortex from male Wistar rats (150-200 g) is homogenised for 5-10 sec in 20 ml Tris-HCl (30 mM, pH 7.4) using an Ultra-Turrax homogeniser. The suspension is centrifuged at 27,000×g for 15 min and the pellet is washed three times with buffer (centrifuged at 27,000×g for 10 min). The washed pellet is homogenized in 20 ml of buffer and incubated on a water bath (37° C.) for 30 min to remove endogenous GABA and then centrifuged for 10 min at 27,000×g. The pellet is then homogenized in buffer and centrifuged for 10 min at 27,000×g. The final pellet is resuspended in 30 ml buffer and the preparation is frozen and stored at −20° C.
The membrane preparation is thawed and centrifuged at 2° C. for 10 min at 27,000×g. The pellet is washed twice with 20 ml 50 mM Tris-citrate, pH 7.1 using an Ultra-Turrax homogeniser and centrifuged for 10 min at 27,000×g. The final pellet is resuspended in 50 mM Tris-citrate, pH 7.1 (500 ml buffer per g of original tissue), and then used for binding assays. Aliquots of 0.5 ml tissue are added to 25 μl of test solution and 25 μl of ^3H-FNM (1 nM, final concentration), mixed and incubated for 40 min at 2° C. Non-specific binding is determined using Clonazepam (1 μM, final concentration). After incubation the samples are added 5 ml of ice-cold buffer and poured directly onto Whatman GF/C glass fibre filters under suction and immediately washed with 5 ml ice-cold buffer. The amount of radioactivity on the filters is determined by conventional liquid scintillation counting. Specific binding is total binding minus non-specific binding.
25-75% inhibition of specific binding must be obtained, before calculation of an IC50.
The test value will be given as IC50 (the concentration (μM) of the test substance which inhibits the specific binding of ^3H-FNM by 50%). […]

SMILES	pIC50
CC(=NO)c1ccc2c(c1)ncn2-c1cccc(COCc2ncnn2C)c1 [Compound 22a, 1-{1-[3-(2-Methyl-2H-[1,2,4]triazol-3-ylmethoxymethyl)-phenyl]-1H-benzoimidazol-5-yl}-ethanone oxime]	8.68
CC(O)c1ccc2c(c1)ncn2-c1cccc(COCc2ncnn2C)c1 (centres unmarked) [Compound 23, 1{-1-[3-(2-Methyl-2H-[1,2,4]triazol-3-ylmethoxymethyl)-phenyl]-1H-benzoimidazol-5-yl}-ethanol]	7.66
CCOC(C)c1ccc2c(c1)ncn2-c1cccc(COCc2ncnn2C)c1 (centres unmarked) [Compound 24b, 5-(1-Ethoxy-ethyl)-1-[3-(2-methyl-2H-[1,2,4]triazol-3-ylmethoxymethyl)-phenyl]-1H-benzoimidazole]	8.04

Tested on: not given
Assay: not given
Settings: not given

melting point [°C]	SMILES
192 to 194	c1ccc(COCc2cccc(-n3cnc4cc(CN5CCCC5)ccc43)c2)nc1
154 to 154.8	ON=Cc1ccc2c(c1)ncn2-c1cccc(COCc2ccccn2)c1
165 to 167	ON=Cc1ccc2c(c1)ncn2-c1cccc(CNCc2ccc(F)c(F)c2)c1
99.8 to 101.2	CCOC(=O)c1ccc2c(c1)ncn2-c1cccc(COCc2ccccn2)c1

SMILES	melting point [°C]
CC(=NO)c1ccc2c(c1)ncn2-c1cccc(COCc2ncnn2C)c1 (as salt: chloride) [Compound 22a, 1-{1-[3-(2-Methyl-2H-[1,2,4]triazol-3-ylmethoxymethyl)-phenyl]-1H-benzoimidazol-5-yl}-ethanone oxime]	178.8 to 180.4
